Results on 13 compounds are retold here after PubChem BioAssay (NCI).

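Growth conditions: 96-well plates. Treatment: test compound, 48 hours, 5 concentrations. Analysis: linear interpolation between bracketing concentrations; unreached endpoints set to highest concentration. GI50: concentration for 50% inhibition of growth. At the TGI there is no net growth.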

Holding throughout (assay): NCI anticancer screen, dose series, 48 h
The subject of assay [1] is SK-MEL-5 melanoma.
Assay [2] has as its system ACHN renal.
Assay [3] relates to MDA-MB-435.
Assay [4] concerns HT29 colon.
In assay [5] the test system is HS 578T breast.
Assay [6] concerns SK-OV-3 ovarian.
In assay [7] the test system is A498 renal.
Assay [8] concerns HCT-15 colon.
Assay [9] deals with EKVX NSCLC.
The test system of assay [10] is HL-60(TB) leukemia.

For the compound `CSC1=Nc2c(c(C)c(-c3ccccc3)n2COC(CO)CO)C2=NC(=O)CN12`, the GI50 in assay [1], in assay [2], in assay [3], in assay [4], in assay [5] and in assay [6] was above 100 µM throughout. The GI50 in assay [7], in assay [8] and in [9] was above 100 µM throughout. The TGI in assay [1], in [2], in assay [3], in assay [4], in [5] and in assay [6] was above 100 µM each time. In addition, the TGI in [7], in [8] and in assay [9] was above 100 µM each time.

With `Cc1cc(O)c2c3c(ccc2c1)C(=O)c1c(O)cccc1C3=O`, the TGI in assay [1] was 1.4 µM; in [2], above 100 µM; in assay [3], 0.341 µM; in assay [4], above 44.9 µM; in assay [5] it was above 100 µM; in [6], above 100 µM. The TGI in assay [7], in assay [8] and in assay [9] was above 100 µM in each case.

`Cn1c(C(=O)c2cccc3ccccc23)nc2ccccc21`: the GI50 in [1], in [10], in assay [2], in assay [3], in assay [4] and in assay [5] was above 100 µM throughout. The GI50 in [6] is above 100 µM; in assay [7], 8.59 µM; in [8], above 100 µM. Further, the TGI in [1], in assay [10], in assay [2], in assay [3], in assay [4] and in assay [5] was above 100 µM throughout. The TGI in assay [6], in assay [7] and in assay [8] was above 100 µM throughout.

With `COc1ccc(-c2c3c(N)c4c(nc3nc3c2c(C)nn3-c2ccccc2)CCCC4)cc1`, the GI50 is 1.84 µM in assay [1]; 2.12 µM in [10]; 4.32 µM in assay [2]; 3.83 µM in [3]; 2.68 µM in [4]; 12.5 µM in assay [5]. Further, the GI50 was 12.1 µM in [6], 11.9 µM in [7] and 3.08 µM in assay [8]. Moreover, the TGI in assay [1] worked out at 3.85 µM; in assay [10] it was 4.3 µM; in [2] it was 15.1 µM; in [3] it was 16.4 µM; in assay [4] it was 8.8 µM; in assay [5], 37.2 µM. Besides, the TGI in assay [6] was 24.6 µM; in [7] it was 27.3 µM; in assay [8] it was 10.9 µM.

`CN(C)CCCn1c2c(c3cc4c(cc3c1=O)OCO4)C(=O)c1ccccc1-2`: the GI50 in [1] is 1.93 µM; in [10], 3.35 µM; in [2] it was below 0.0213 µM; in [3] it was 1.49 µM; in assay [4], 0.0472 µM; in assay [5], 11.5 µM. Moreover, the results for the GI50 in assay [6], in [8] and in assay [9] were 4.99 µM, below 0.0275 µM and 5.55 µM, respectively. Besides, the TGI is 7.07 µM in [1]; 20.4 µM in assay [10]; 0.234 µM in assay [2]; 5.81 µM in assay [3]; above 100 µM in assay [4]; 43.4 µM in assay [5]. The values for the TGI in [6], in [8] and in assay [9] were above 39.3 µM, 4.35 µM and 34.9 µM, respectively.

For the compound `COc1ccc(OC)c(Cc2cnc3nc(N)nc(N)c3c2C)c1`, the TGI in [1] is 93.8 µM; in assay [10], 18.7 µM; in assay [2], 20.1 µM; in assay [3], above 49 µM; in assay [4], 20 µM; in assay [5] it was 49.7 µM. The TGI in [6] was 27.2 µM; in assay [8] it was 11.4 µM; in assay [9], above 83.3 µM.

Turning to `CC(=O)N(O)c1ccc(/C=C/c2ccccc2)cc1`, the GI50 in assay [1] was 6.05 µM; in assay [10], 1.07 µM; in assay [2], 0.26 µM; in assay [3] it was 3.39 µM; in assay [4], 3.39 µM; in assay [5], 3.62 µM. For the same compound, the values for the GI50 in [6], in assay [7] and in [8] were 2.04 µM, 0.221 µM and 2.9 µM, respectively. Moreover, the TGI is above 100 µM in assay [1]; above 100 µM in assay [10]; 2.08 µM in assay [2]; above 100 µM in assay [3]; 53.2 µM in [4]; 68.8 µM in assay [5]. Moreover, the figures for the TGI in [6], in [7] and in assay [8] were 8.77 µM, 0.715 µM and above 100 µM, respectively.

`CC(C)(C)c1cc(C(=O)O)c2c(c1)C(=O)OC2(c1ccccc1)c1ccccc1C(=O)O` (configuration not stated): the GI50 in [1], in [3], in assay [5] and in [7] was above 100 µM each time. The TGI in assay [1], in assay [10], in [2], in assay [3], in assay [4] and in assay [5] was above 100 µM in each case. In addition, the TGI in assay [7], in assay [8] and in assay [9] was above 100 µM each time.

With `Fc1ccc2nc(-c3nc(-c4ccccc4)n4ccccc34)[nH]c2c1`, the GI50 in assay [1] is 1.55 µM; in assay [10] it was 14.9 µM; in assay [2], 2.25 µM; in assay [3] it was 2.59 µM; in [4] it was 3.25 µM; in assay [5], 3.56 µM. The GI50 in [6] was 2.4 µM; in [7] it was 2.08 µM; in assay [8], 4.29 µM. Besides, the TGI in [1] is 3.49 µM; in assay [10] it was above 100 µM; in [2] it was 5.94 µM; in assay [3], 8.94 µM; in assay [4], 9.15 µM; in assay [5], 25 µM. Further, the TGI was found to be 5.26 µM in [6], 6.46 µM in [7] and 27.7 µM in assay [8].

As for `O=S(=O)(NCCCNc1nccc(-c2c(-c3ccc(F)cc3)nc3sccn23)n1)c1ccc(F)cc1`, the GI50 in assay [1] was 4.63 µM; in assay [10] it was 8.38 µM; in assay [2] it was 4.61 µM; in assay [3], 3.69 µM; in assay [4], 3.52 µM; in assay [5] it was 9.66 µM. For the same compound, the results for the GI50 in assay [6], in [7] and in assay [8] were 17.1 µM, 2.25 µM and 3.92 µM, respectively. Moreover, the TGI in assay [1] was 57.9 µM; in assay [10] it was above 100 µM; in assay [2], above 100 µM; in [3] it was above 100 µM; in assay [4], 21.4 µM; in assay [5], above 100 µM. The results for the TGI in assay [6], in [7] and in [8] were above 100 µM, 45.6 µM and above 100 µM, respectively.

`[Cl][Cu][Cl]`: the GI50 in assay [1], in assay [10], in assay [2], in assay [3], in [4] and in assay [5] was above 10 µM in each case. Further, the GI50 in assay [6], in assay [8] and in [9] was above 10 µM throughout. In addition, the TGI in [1], in [10], in [2], in assay [3], in assay [4] and in assay [5] was above 10 µM throughout. For the same compound, the TGI in assay [6], in assay [8] and in assay [9] was above 10 µM each time.

On to `Cc1ccc(S(=O)(=O)NC(=O)OC23COCN2COC3)cc1`, for which the TGI in [1], in assay [2], in [3], in [4], in [5] and in assay [6] was above 100 µM each time. The TGI in assay [7], in [8] and in assay [9] was above 100 µM in each case.

Take `Clc1ccc([I+]c2ccc(Cl)cc2Cl)c(Cl)c1`: the GI50 in assay [1] is 6.04 µM; in [10], 2.09 µM; in assay [2], 1.89 µM; in assay [3] it was 1.96 µM; in [4], 1.78 µM; in assay [5], 2.48 µM. Besides, the GI50 in assay [6] is 4.17 µM; in assay [7], 1.76 µM; in assay [8] it was 2.06 µM. Moreover, the TGI in assay [1] is 20.3 µM; in assay [10], 4.58 µM; in assay [2], 3.77 µM; in assay [3], 4.33 µM; in assay [4] it was 3.26 µM; in assay [5] it was 8.81 µM. The TGI in assay [6] amounted to 12 µM; in assay [7], 6.98 µM; in assay [8] it was 5.25 µM.
